Tests used:
[1] = target: T1, human recombinant HDAC1 (Homo sapiens, UniProt Q13547); assay: HDAC1 enzyme activity inhibition (HDAC Fluorimetric Drug Discovery Kit); assay type: biochemical; settings: human recombinant HDAC1, Fluor de Lys substrate, 30° C. 60 minutes; read-out: HDAC1
T1 construct: purchased Enzo Life Science, Inc. BML-SE456
Method in brief: (§1)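 Enzyme at 0.3 µg per well was reacted with 10 μM fluorogenic substrate in presence of 5-fold diluted compound, 30° C for 60 min.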

[2] = target: T2, human recombinant HDAC6 (Homo sapiens, UniProt Q9UBN7); assay: HDAC6 enzyme activity inhibition (HDAC Fluorimetric Drug Discovery Kit); assay type: biochemical; settings: for HDAC6 selectivity (fold): HDAC6 over HDAC1; for IC50: human recombinant HDAC6, same protocol as HDAC1
T2 construct: purchased Calbiochem Inc. 382180
T2 sequence (Q9UBN7 1-1215): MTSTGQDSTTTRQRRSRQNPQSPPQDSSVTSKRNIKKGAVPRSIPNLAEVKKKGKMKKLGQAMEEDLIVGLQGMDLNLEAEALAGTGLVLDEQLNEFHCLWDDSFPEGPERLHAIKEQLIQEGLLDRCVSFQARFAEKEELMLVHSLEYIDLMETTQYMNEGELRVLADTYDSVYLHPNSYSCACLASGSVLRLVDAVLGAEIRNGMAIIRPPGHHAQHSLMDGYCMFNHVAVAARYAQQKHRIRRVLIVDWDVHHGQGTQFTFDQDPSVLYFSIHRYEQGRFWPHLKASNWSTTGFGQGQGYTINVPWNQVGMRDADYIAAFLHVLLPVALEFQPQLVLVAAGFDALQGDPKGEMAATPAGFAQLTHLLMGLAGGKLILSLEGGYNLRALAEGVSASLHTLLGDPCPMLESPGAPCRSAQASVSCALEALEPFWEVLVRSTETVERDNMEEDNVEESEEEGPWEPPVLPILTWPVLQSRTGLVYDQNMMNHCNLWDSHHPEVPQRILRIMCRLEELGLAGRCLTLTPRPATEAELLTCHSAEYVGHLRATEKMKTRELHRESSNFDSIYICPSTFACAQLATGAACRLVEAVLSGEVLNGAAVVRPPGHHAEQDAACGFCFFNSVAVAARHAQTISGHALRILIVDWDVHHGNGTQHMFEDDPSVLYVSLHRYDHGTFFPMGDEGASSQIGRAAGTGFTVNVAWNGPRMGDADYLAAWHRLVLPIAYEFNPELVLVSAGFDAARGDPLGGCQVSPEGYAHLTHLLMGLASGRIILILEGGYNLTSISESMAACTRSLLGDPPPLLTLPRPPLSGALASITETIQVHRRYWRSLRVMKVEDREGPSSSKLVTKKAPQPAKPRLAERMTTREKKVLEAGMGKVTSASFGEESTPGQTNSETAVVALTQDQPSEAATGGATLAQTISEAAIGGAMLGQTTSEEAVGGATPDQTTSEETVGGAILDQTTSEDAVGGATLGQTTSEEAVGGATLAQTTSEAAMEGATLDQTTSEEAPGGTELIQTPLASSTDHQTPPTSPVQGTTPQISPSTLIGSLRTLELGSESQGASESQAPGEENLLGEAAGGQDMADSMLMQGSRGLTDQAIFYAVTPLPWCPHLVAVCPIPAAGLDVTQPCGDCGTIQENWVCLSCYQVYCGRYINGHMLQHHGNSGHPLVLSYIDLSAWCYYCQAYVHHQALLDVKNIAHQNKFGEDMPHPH
Method in brief: as §1

T1 sequence (Q13547 whole entry): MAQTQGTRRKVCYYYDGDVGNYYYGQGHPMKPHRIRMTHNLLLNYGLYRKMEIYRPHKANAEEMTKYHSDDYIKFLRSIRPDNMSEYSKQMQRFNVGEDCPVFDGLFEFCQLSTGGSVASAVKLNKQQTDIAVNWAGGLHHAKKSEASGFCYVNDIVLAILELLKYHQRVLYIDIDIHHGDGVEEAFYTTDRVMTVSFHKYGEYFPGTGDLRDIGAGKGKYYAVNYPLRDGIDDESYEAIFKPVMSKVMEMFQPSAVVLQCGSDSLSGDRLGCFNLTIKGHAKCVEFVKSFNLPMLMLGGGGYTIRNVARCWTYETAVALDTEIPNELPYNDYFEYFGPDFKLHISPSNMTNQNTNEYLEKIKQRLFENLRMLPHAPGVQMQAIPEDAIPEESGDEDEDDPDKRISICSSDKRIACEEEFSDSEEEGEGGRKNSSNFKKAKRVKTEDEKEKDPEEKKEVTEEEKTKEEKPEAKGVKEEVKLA

Compound | IC50 [1] [µM] | HDAC6 selectivity (fold) [2] [fold] | IC50 [2] [µM]
Fc1cc(-c2nnc(C(F)F)o2)cnc1Cn1cc(-c2ccccc2CN2CCC2)nn1 [Compound 18822, 2-(6-((4-(2-(azetidin-1-ylmethyl)phenyl)-1H-1,2,3-triazol-1-yl)methyl)-5-fluoropyridin-3-yl)-5-(difluoromethyl)-1,3,4-oxadiazole] | > 50 | 98 | 0.505
Fc1cc(-c2nnc(C(F)F)o2)cnc1Cn1cc(-c2ccccc2CN2CCCC2)nn1 [Compound 18823] | > 50 | 131 | 0.38
CC(C)(C)OC(=O)N1CCC(c2cccc(-c3cn(Cc4ncc(-c5nnc(C(F)F)o5)cc4F)nn3)c2)CC1 [Compound 18868, tert-butyl 4-(3-(1-((5-(5-(difluoromethyl)-1,3,4-oxadiazol-2-yl)-3-fluoropyridin-2-yl)methyl)-1H-1,2,3-triazol-4-yl)phenyl)piperidin-1-carboxylate] | > 50 | 90 | 0.551
CN1CCC(c2cccc(-c3cn(Cc4ncc(-c5nnc(C(F)F)o5)cc4F)nn3)c2)CC1 [Compound 18869, 2-(difluoromethyl)-5-(5-fluoro-6-((4-(3-(1-methylpiperidin-4-yl)phenyl)-1H-1,2,3-triazol-1-yl)methyl)pyridin-3-yl)-1,3,4-oxadiazole] | > 50 | 1075 | 0.0465
Fc1cc(-c2nnc(C(F)F)o2)cnc1Cn1cc(-c2cccc(C3CCN(C4CCC4)CC3)c2)nn1 [Compound 18870, 2-(6-((4-(3-(1-cyclobutylpiperidin-4-yl)phenyl)-1H-1,2,3-triazol-1-yl)methyl)-5-fluoropyridin-3-yl)-5-(difluoromethyl)-1,3,4-oxadiazole] | > 50 | 1123 | 0.0445

Second part, the compound after the results:

IC50 [1] [µM] | HDAC6 selectivity (fold) [2] [fold] | IC50 [2] [µM] | Compound
> 50 | 1012 | 0.0494 | CN(C)Cc1cccc(-c2cn(Cc3ccc(-c4nnc(C(F)F)o4)cc3F)nn2)c1Cl [Compound 18554, 1-(2-chloro-3-(1-(4-(5-(difluoromethyl)-1,3,4-oxadiazol-2-yl)-2-fluorobenzyl)-1H-1,2,3-triazol-4-yl)phenyl)-N,N-dimethylmethanamine]
> 50 | 606 | 0.0824 | Fc1cc(-c2nnc(C(F)F)o2)cnc1Cn1cc(-c2ccc(CN3CCC3)cn2)nn1 [Compound 18622, 2-(6-((4-(5-(azetidin-1-ylmethyl)pyridin-2-yl)-1H-1,2,3-triazol-1-yl)methyl)-5-fluoropyridin-3-yl)-5-(difluoromethyl)-1,3,4-oxadiazole]
> 50 | 524 | 0.0954 | CN(C)Cc1ccc(-c2cn(Cc3ccc(-c4nnc(C(F)F)o4)cc3F)nn2)cc1Cl [Compound 18711, 1-(2-chloro-4-(1-(4-(5-(difluoromethyl)-1,3,4-oxadiazol-2-yl)-2-fluorobenzyl)-1H-1,2,3-triazol-4-yl)phenyl)-N,N-dimethylmethanamine]
> 50 | 1146 | 0.0436 | Fc1cc(-c2nnc(C(F)F)o2)ccc1Cn1cc(-c2ccc(CN3CCC3)c(Cl)c2)nn1 [Compound 18712]
> 50 | 685 | 0.0729 | Fc1cc(-c2nnc(C(F)F)o2)ccc1Cn1cc(-c2ccc(CN3CCCC3)c(Cl)c2)nn1 [Compound 18713, 2-(4-((4-(3-chloro-4-(pyrrolidin-1-ylmethyl)phenyl)-1H-1,2,3-triazol-1-yl)methyl)-3-fluorophenyl)-5-(difluoromethyl)-1,3,4-oxadiazole]
> 50 | 622 | 0.0803 | COc1cccc(-c2cn(Cc3ccc(-c4nnc(C(F)F)o4)cc3F)nn2)n1 [Compound 18736, 2-(difluoromethyl)-5-(3-fluoro-4-((4-(6-methoxypyridin-2-yl)-1H-1,2,3-triazol-1-yl)methyl)phenyl)-1,3,4-oxadiazole]
